Experimental data as given in publication PMC9692424, “In Vitro Screening for Anti-Acetylcholinesterase and Antioxidant Activities of Hottonia palustris L. Extracts and Their Unusual Flavonoids” (Molecules, 2022).
Like-named read-outs stand apart in the source and are kept apart here.

Key:
[1] = ABTS radical cation scavenging activity (Antioxidant Assay Kit); conditions: compounds 1–19; Trolox equivalents; mean ± SD, triplicate
Procedure: The potential inhibition of the production of the radical cation was measured using an Antioxidant Assay Kit. In short, the mixed solution, including 10 µL of the test sample, 20 µL of the myoglobin working solution, and 150 µL of the ABTS working solution, was incubated for 5 min. Then, 100 µL of the stop solution was added, and the absorbance was measured at 405 nm. All tests were performed in triplicate. The results were expressed as µM of Trolox equivalents obtained from the standard curve.

[2] = target: acetylcholinesterase (AChE) (Homo sapiens, UniProt P22303); assay: biochemical
Chain of acetylcholinesterase (AChE) (P22303 32-614): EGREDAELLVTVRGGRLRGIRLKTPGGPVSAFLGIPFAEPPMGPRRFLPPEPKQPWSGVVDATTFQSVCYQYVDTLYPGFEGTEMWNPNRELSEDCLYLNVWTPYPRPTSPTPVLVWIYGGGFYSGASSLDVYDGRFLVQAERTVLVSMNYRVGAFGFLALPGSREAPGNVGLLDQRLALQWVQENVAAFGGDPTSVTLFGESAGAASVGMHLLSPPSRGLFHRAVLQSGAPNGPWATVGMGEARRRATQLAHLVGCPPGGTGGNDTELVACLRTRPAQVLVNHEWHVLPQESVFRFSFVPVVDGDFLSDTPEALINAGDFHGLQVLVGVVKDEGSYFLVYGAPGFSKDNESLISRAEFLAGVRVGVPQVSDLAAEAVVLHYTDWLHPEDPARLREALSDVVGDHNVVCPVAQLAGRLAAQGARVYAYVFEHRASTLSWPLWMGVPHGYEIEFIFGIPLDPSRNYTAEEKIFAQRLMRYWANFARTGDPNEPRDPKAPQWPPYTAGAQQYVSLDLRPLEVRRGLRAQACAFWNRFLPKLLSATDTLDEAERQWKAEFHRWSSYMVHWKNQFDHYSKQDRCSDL
Procedure: Acetylcholinesterase inhibition was determined according to the previously described method [34] with a slight modification. The assay was carried out in Tris-HCl buffer (pH = 8 at 25 °C). The test extracts or compounds were diluted in the same buffer to the appropriate concentrations. Firstly, the reaction mixture containing the sample solution (50 µL), AChE solution (25 µL, 0.25 U/mL), and Ellman’s Reagent (3 mM, 125 µL) was incubated for 15 min at room temperature. Subsequently, 25 µL of ACh iodide (15 mM) was added, and after a further quarter-hour of incubation, the absorbance was estimated at 405 nm. The blank well contained the same amount of Tris-HCl buffer instead of the sample solution. […] All measurements were conducted in triplicate, and the values are presented as IC50 means with standard deviations (SDs). The percent inhibition was calculated using the following formula:Enzyme inhibition activity (%) = (B − S)/B × 100% where B is the blank, and S is the sample absorbance.

[3] = Free radical scavenging activity (DPPH assay); conditions: compounds 1–19; Trolox equivalents; mean ± SD, triplicate
Procedure: The methanolic solutions of fractions or compounds (130 µL) were added to the DPPH solution (70 µL). The sample’s absorbance was recorded after 30 min of incubation in darkness. All tests were performed in triplicate [33]. The radical scavenging activity of the tested samples was calculated using an equation obtained through linear regression of the Trolox standard curve. The methanolic solutions of fractions or compounds (130 µL) were added to the DPPH solution (70 µL). The sample absorbance was recorded after 30 min of incubation in darkness. All tests were performed in triplicate [33]. The radical scavenging activity of the tested samples was calculated using the equation obtained through linear regression of the Trolox standard curve.

[4] = Cupric ion reducing method (CUPRAC); conditions: compounds 1–19; Trolox equivalents; mean ± SD, triplicate; na = no significant activity
Procedure: The total antioxidant capacity was determined using an Antioxidant Assay Kit MAK334. In short, 20 µL of each fraction or compound solution was added to 100 µL of the Reaction Mix in the clear, flat-bottomed 96-well plate. The absorbance was measured at 570 nm after 10 min of incubation at room temperature. The results were determined using a standard curve evaluated for Trolox.

[5] = Ferric-reducing antioxidant power method (FRAP); conditions: compounds 1–19; ferrous ion equivalents; mean ± SD, triplicate; na = no significant activity
Procedure: The ferric-reducing power was measured using the Ferric-Reducing Antioxidant Power Assay Kit. In brief, 10 µL of the tested solution was added to 190 µL of the reaction solutions (containing FRAP Assay Buffer, FeCl3 solution, and FRAP Probe). All of the absorbance values were recorded at 594 nm after 1 h of incubation at 37 °C. The chelating activity was determined using a standard curve and evaluated as mM of ferrous ion equivalents. All tests were performed in triplicate.

[6] = compounds 1–19, mean ± SD, at least triplicate, read-out: AChE IC50

SMILES | ABTS [1] [µM Teq] | IC50 [2, 6] [µM] | DPPH [3] [µM Teq] | CUPRAC [4] [µM Teq] | FRAP [5] [mM Fe^2+/mL] | IC50 [2] [µM]
O=C(CC(=O)c1ccccc1)c1ccccc1 [Compound 1, 1,3-diphenylpropane-1,3-dione] | 300.12 ± 4.97 | 144.8 ± 1.3 | 39.81 ± 2.76 | 3.18 ± 0.32 |  | 
O=c1cc(-c2ccccc2)oc2cccc(O)c12 [Compound 2, 5-hydroxyflavone] | 317.47 ± 3.91 | 314.4 ± 1.72 | 41.71 ± 2.28 |  |  | 
COc1ccccc1-c1cc(=O)c2c(O)cccc2o1 [Compound 3, 5-hydroxy-2′-methoxyflavone] | 330.59 ± 4.04 | 279.7 ± 0.45 | 39.39 ± 1.59 |  |  | 
COc1cccc(OC)c1-c1cc(=O)c2c(O)cccc2o1 [Compound 4, 5-hydroxy-2’,6’-dimethoxyflavone] | 326.76 ± 6.64 | 325.4 ± 3.21 | 28.63 ± 2.40 |  |  | 
COc1ccc(OC)c(-c2cc(=O)c3c(O)cccc3o2)c1OC [Compound 5, 5-hydroxy-2’,3’,6’-trimethoxyflavone] | 280.02 ± 1.55 | 284.6 ± 0.8 | 34.32 ± 0.97 |  |  | 
COc1ccc2oc(-c3ccccc3O)cc(=O)c2c1O [Compound 6, 2’,5-dihydroxy-6-methoxyflavone] | 781.28 ± 4.38 | 391.8 ± 1.06 | 227.55 ± 2.85 | 366.29 ± 1.24 | 15.81 ± 0.85 | 
COc1ccc(O)c(-c2cc(=O)c3c(O)cccc3o2)c1OC [Compound 7, 5,6′-dihydroxy-2′,3′-dimethoxyflavone] | 277.56 ± 2.88 | 390.8 ± 0.66 | 37.85 ± 1.90 |  |  | 
O=c1cc(-c2ccccc2O[C@@H]2O[C@H](CO)[C@@H](O)[C@H](O)[C@H]2O)oc2cccc(O)c12 [Compound 9, 5,2′-dihydroxyflavone 2′-O-β-glucopyranoside] | 204.59 ± 2.26 | 399.7 ± 0.64 | 170.56 ± 2.49 | 20.33 ± 1.57 |  | 
O=c1cc(-c2ccccc2)oc2ccc(OC3OC(COC4OC(CO)C(O)C(O)C4O)C(O)C(O)C3O)c(O)c12 (stereo not drawn) [Compound 10, 5,6-dihydroxyflavone 6-O-(6″-O-glucopyranosyl)-β-glucopyranoside] | 624.94 ± 5.70 | 376.1 ± 1.87 | 204.31 ± 3.31 | 19.79 ± 1.03 |  | 
O=c1cc(-c2ccccc2O)oc2cccc(O)c12 [Compound 11, 5,2′-dihydroxyflavone] | 661.30 ± 3.81 | 371.5 ± 0.66 | 175.83 ± 2.83 | 44.50 ± 1.35 | 0.07 ± 0.01 | 
O=c1cc(-c2ccccc2)oc2ccc(O)c(O)c12 [Compound 12, 5,6-dihydroxyflavone] | 1052.41 ± 5.51 | 362.2 ± 0.39 | 1522.38 ± 7.31 | 1060.42 ± 5.33 | 54.25 ± 1.03 | 
O=c1cc(-c2ccccc2)oc2cc(O)cc(O)c12 [Compound 13, 5,7-dihydroxyflavone] | 728.26 ± 1.08 | 330.1 ± 1.77 | 227.51 ± 1.83 |  | 0.08 ± 0.01 | 
CC1OC(OCC2OC(Oc3c(-c4ccc(O)cc4)oc4cc(O)cc(O)c4c3=O)C(O)C(O)C2O)C(O)C(O)C1O (stereo not drawn) [Compound 15, kaempferol 3-O-(6″-O-α-rhamnopyranosyl)-β-glucopyranoside] | 702.29 ± 2.47 | 407.4 ± 1.41 | 250.72 ± 1.65 | 56.81 ± 1.52 | 0.40 ± 0.06 | 
O=c1c(OC2OC(COC3OCC(O)C(O)C3O)C(O)C(O)C2O)c(-c2ccc(O)cc2)oc2cc(O)cc(O)c12 (stereo not drawn) [Compound 16, kaempferol-3-O-(6″-O-β-xylopyranosyl)-β-glucopyranoside] | 717.32 ± 3.47 | 364.3 ± 1.79 | 300.29 ± 1.87 | 74.40 ± 1.49 | 0.67 ± 0.06 | 
O=c1c(O)c(-c2ccc(O)cc2)oc2cc(O)cc(O)c12 [Compound 17, kaempferol] | 1095.04 ± 1.85 |  | 792.53 ± 7.31 | 848.64 ± 3.49 | 36.87 ± 1.20 | 276.9 ± 1.41
O=c1c(OC2OC(COC3OCC(O)C(O)C3O)C(O)C(O)C2O)c(-c2ccc(O)c(O)c2)oc2cc(O)cc(O)c12 (stereo not drawn) [Compound 18, quercetin 3-O-(6″-O-β-xylopyranosyl)-β-glucopyranoside] | 1147.52 ± 7.06 | 303 ± 3.33 | 1336.75 ± 6.33 | 1401.11 ± 2.64 | 63.98 ± 1.75 | 
C[C@@H]1O[C@@H](OC[C@H]2O[C@@H](Oc3c(-c4ccc(O)c(O)c4)oc4cc(O)cc(O)c4c3=O)[C@H](O)[C@@H](O)[C@@H]2O)[C@H](O)[C@H](O)[C@H]1O [Compound 19, quercetin 3-O-(6″-O-α-rhamnopyranosyl)-β-glucopyranoside] | 1149.16 ± 5.25 |  | 1467.53 ± 5.48 | 1258.68 ± 3.49 | 52.98 ± 1.35 | 445.32 ± 0.35
